How the values were obtained:
OATP1A2 = assay: Expression level of OATP1A2 in rat liver by UHPLC-MS/MS; format: in vivo
Experimental: Male Sprague Dawley rats (230 ± 20 g, 6–8 weeks of age) were purchased from B&K Laboratory Animal, Corp. Ltd. (Shanghai, China) and fed in the Laboratory Animal Center of Shanghai University of Traditional Chinese Medicine. All rats were allowed to acclimatize for 3 days before experimentation. The rats were randomly divided into six groups (n = 5 for each group). […] The rats in groups 4, 5, and 6 were intragastrically administered YCHD every 24 h for 10 consecutive days. The rats in group 3 were orally administered UDCA at a dose of 100 mg/kg every 24 h for 10 consecutive days, which is well-documented to treat induced liver injury and cholestasis ([Chen et al., 2016]; [Cao et al., 2017]). Moreover, groups 1 and 2 were intragastrically treated with physiological saline (0.9%) at a dose of 1 mL/100 g. […] At the end of the experiment, all rats were euthanized by CO2 inhalation. The serum samples were stored at -70°C until analysis, and liver samples were isolated and stored at -70°C for further analysis, whereas the central part of the right large lobe of the liver was used for histological examination. […]
Total membrane protein was isolated (in triplicate) from liver tissue according to the Native Membrane Protein Extraction Kit protocol. Subsequently, protein concentrations were determined by applying the BCA Protein Assay Kit. […]

[1] = system: ANIT-induced cholestatic liver injury; assay: Serum biochemistry (ALT, AST, TBIL, DBIL, TBA) in ANIT-induced cholestatic liver injury; format: in vivo, rat
Experimental: Ltd. (Shanghai, China) and fed in the Laboratory Animal Center of Shanghai University of Traditional Chinese Medicine. […] The rats were randomly divided into six groups (n = 5 for each group). […] [Cao et al., 2017]). […] Before and 24 h after modeling, retro-orbital blood samples were collected in a coagulation tube, and they were then centrifuged at 4°C for 10 min (4000 rpm) to obtain the serum for the assay of ALT, AST, TBIL, DBIL, and TBA. At the end of the experiment, all rats were euthanized by CO2 inhalation. The serum samples were stored at -70°C until analysis, and liver samples were isolated and stored at -70°C for further analysis, whereas the central part of the right large lobe of the liver was used for histological examination.  FIGURE 2 The scheme of the animal experimental design. […] UDCA, positive control group treated with ursodeoxycholic acid (UDCA) (100 mg/kg, […].); […] A closed IV catheter system (Becton Dickinson, United States) was applied to cannulate the bile duct, and the bile specimens were collected into tubes at 2 h intervals for 6 h. The collected serum samples were maintained at room temperature to dissolve. The serum levels of ALT, AST, TBIL, DBIL, and TBA were then determined using a chemistry analyzer system (HITACHI 7080, Japan).

MATE1 = assay: Expression level of MATE1 in rat liver by UHPLC-MS/MS; format: in vivo
From the text: Male Sprague Dawley rats (230 ± 20 g, 6–8 weeks of age) were purchased from B&K Laboratory Animal, Corp. Ltd. (Shanghai, China) and fed in the Laboratory Animal Center of Shanghai University of Traditional Chinese Medicine. All rats were allowed to acclimatize for 3 days before experimentation. The rats were randomly divided into six groups (n = 5 for each group). […]
Biotransformation of xenobiotics and endogenous compounds is a crucial step in the absorption and elimination of potentially harmful substances from the human body, a process that could be affected by the levels of pharmacokinetic enzymes and transporter proteins. […] Previous methods of protein quantification are immunological, such as immunoblotting ([Zhang et al., 2016]), […] and two-dimensional electrophoresis ([Bruschi et al., 2015]). […] A milestone in quantitative protein analysis was the introduction of mass spectrometry-based analysis using shotgun proteomic assays with relative protein quantification, which has advantages in terms of absolute accuracy, stability, operability, and efficiency over traditional quantitative methods ([Wang et al., 2015]). […]

[2] = UDCA group, ANIT-treated rats, mean ± S.D.
[3] = UDCA 100 mg/kg i.g. daily 10 days, ANIT 50 mg/kg on day 8, serum

**Q.** Which “Oatp1a2 expression level in rat liver” value (OATP1A2; [2]) does the source give for `C[C@H](CCC(=O)O)[C@H]1CC[C@H]2[C@@H]3[C@@H](O)C[C@@H]4C[C@H](O)CC[C@]4(C)[C@H]3CC[C@]12C` [UDCA, Ursodeoxycholic acid] here?
**A.** The value was 1.27±0.18 fmol/μg protein.

**Q.** And the “OATP1A2 level, fold higher” value (OATP1A2; UDCA-treated cholestatic rats, liver, as compared with the control group, p < 0.05)?
**A.** Its value is 1.5 fold.

**Q.** And the ALT [1, 3]?
**A.** Its ALT is 400.6±200.0 IU/L.

**Q.** And the AST [1, 3]?
**A.** Its AST is 611.8±257.2 IU/L.

**Q.** And the DBIL [1, 3]?
**A.** The DBIL was 21.2 ± 9.0 µmol/L.

**Q.** What about the TBA [1, 3] of the same compound?
**A.** Its TBA is 428.1 ± 55.9 µmol/L.

**Q.** What about the TBIL [1, 3] of the same compound?
**A.** Its TBIL is 28.2 ± 19.0 µmol/L.

**Q.** What about the “serum TBA decreased to (printed), compared with the control group (printed)” value ([1]; UDCA 100 mg/kg, ANIT-treated rats, p < 0.001) of the same compound?
**A.** The value was 30.9%.

**Q.** And the “serum DBIL decreased to (printed), compared with the control group (printed)” value ([1]; UDCA 100 mg/kg, ANIT-treated rats, p < 0.01)?
**A.** The value was 40.9%.

**Q.** What about the “Mate1 expression level in rat liver” value (MATE1; [2]) of the same compound?
**A.** The value was 3.43±1.38 fmol/μg protein.

**Q.** And the “MATE1 expression upregulated, fold” value (MATE1; UDCA-treated cholestatic rats, liver, not statistically significant)?
**A.** The value was 1.7 fold.

— PMC5962729 (Frontiers in Pharmacology, 2018)
